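Compound exposure: 48 hours, 5 concentrations, 96-well plates. TGI: concentration producing complete growth inhibition.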
What was measured:
Experiment in all cases: growth of human tumour cells (NCI), 48 h
[1] = system: HOP-18 NSCLC
[2] = system: EKVX NSCLC
[3] = system: DMS 114 small cell lung
[4] = system: UACC-62 melanoma
[5] = system: CCRF-CEM leukemia
[6] = system: RXF 393 renal
[7] = system: M14 melanoma
[8] = system: M19-MEL melanoma
[9] = system: RPMI-8226 leukemia
[10] = system: XF 498 CNS
[11] = system: SNB-78 CNS
[12] = system: NCI-H460 lung
[13] = system: U251 CNS
[14] = system: TK-10 renal
[15] = system: DLD-1 colon
[16] = system: LXFL 529 NSCLC
[17] = system: SK-MEL-28 melanoma
[18] = system: OVCAR-5 ovarian
[19] = system: LOX IMVI melanoma
[20] = system: HL-60(TB) leukemia
[21] = system: SK-OV-3 ovarian
[22] = system: OVCAR-8 ovarian
[23] = system: HCT-15 colon
[24] = system: IGROV1 ovarian
[25] = system: COLO 205 colon
[26] = system: A549 NSCLC
[27] = system: OVCAR-3 ovarian
[28] = system: KM12 colon
[29] = system: K-562 leukemia
[30] = system: HOP-62 NSCLC
[31] = system: SW-620 colon
[32] = system: ACHN renal
[33] = system: SNB-19 CNS
[34] = system: UACC-257 melanoma
[35] = system: UO-31 renal
[36] = system: SF-539 CNS
[37] = system: SF-268 CNS
[38] = system: SN12C renal
[39] = system: OVCAR-4 ovarian
[40] = system: KM20L2 colon
[41] = system: MOLT-4 leukemia
[42] = system: SK-MEL-2 melanoma
[43] = system: HT29 colon
[44] = system: HCT-116 colon
[45] = system: A498 renal
[46] = system: 786-0 renal
[47] = system: NCI-H226 lung
[48] = system: MALME-3M melanoma
[49] = system: SF-295 CNS
[50] = system: NCI-H522 lung
[51] = system: HOP-92 NSCLC
[52] = system: CAKI-1 renal
[53] = system: SR leukemia
[54] = system: HCC-2998 colon
[55] = system: NCI-H23 lung
[56] = system: DMS 273 small cell lung
[57] = system: SK-MEL-5 melanoma
[58] = system: SNB-75 CNS

CCOC(=O)c1nc2c(OC)nn(O)cc-2c1[N+](=O)[O-]
TGI [1]: 34.9 µM
TGI [2]: 36.4 µM
TGI [3]: 48.4 µM
TGI [4]: 40.5 µM
TGI [5]: 50.9 µM
TGI [6]: 29.3 µM
TGI [7]: 36.4 µM
TGI [8]: 89.2 µM
TGI [9]: 56.2 µM
TGI [10]: 29.6 µM
TGI [11]: 44.6 µM
TGI [12]: 49.2 µM
TGI [13]: 30.8 µM
TGI [14]: 30 µM
TGI [15]: 33.7 µM
TGI [16]: 31 µM
TGI [17]: 29.9 µM
TGI [18]: 33.7 µM
TGI [19]: 30 µM
TGI [20]: 46.4 µM
TGI [21]: > 100 µM
TGI [22]: 36.4 µM
TGI [23]: 36.2 µM
TGI [24]: > 100 µM
TGI [25]: 61.9 µM
TGI [26]: > 100 µM
TGI [27]: 35.2 µM
TGI [28]: 28.2 µM
TGI [29]: 36.8 µM
TGI [30]: > 100 µM
TGI [31]: 29.1 µM
TGI [32]: 31 µM
TGI [33]: 62.8 µM
TGI [34]: 33.5 µM
TGI [35]: 42.4 µM
TGI [36]: 73.3 µM
TGI [37]: 94.9 µM
TGI [38]: 34.7 µM
TGI [39]: 34.9 µM
TGI [40]: 30.1 µM
TGI [41]: 75.1 µM
TGI [42]: 34.9 µM
TGI [43]: 29.3 µM
TGI [44]: 38 µM
TGI [45]: 36.2 µM
TGI [46]: 30.7 µM
TGI [47]: 79.6 µM
TGI [48]: 32.4 µM
TGI [49]: > 100 µM
TGI [50]: 36.9 µM

COCC(OC)C(CC=C(C#N)C#N)OC (stereo not drawn)
TGI [2]: > 100 µM
TGI [3]: > 100 µM
TGI [4]: > 100 µM
TGI [5]: > 100 µM
TGI [51]: > 100 µM
TGI [7]: > 100 µM
TGI [8]: > 100 µM
TGI [9]: > 100 µM
TGI [10]: > 100 µM
TGI [11]: > 100 µM
TGI [13]: > 100 µM
TGI [14]: > 100 µM
TGI [52]: > 100 µM
TGI [16]: > 100 µM
TGI [17]: > 100 µM
TGI [18]: > 100 µM
TGI [19]: > 100 µM
TGI [20]: > 100 µM
TGI [21]: > 100 µM
TGI [22]: > 100 µM
TGI [23]: > 100 µM
TGI [53]: > 100 µM
TGI [24]: > 100 µM
TGI [25]: > 100 µM
TGI [26]: > 100 µM
TGI [27]: > 100 µM
TGI [28]: > 100 µM
TGI [29]: > 100 µM
TGI [54]: > 100 µM
TGI [30]: > 100 µM
TGI [31]: > 100 µM
TGI [32]: > 100 µM
TGI [55]: > 100 µM
TGI [33]: > 100 µM
TGI [34]: > 100 µM
TGI [35]: > 100 µM
TGI [36]: > 100 µM
TGI [37]: > 100 µM
TGI [38]: > 100 µM
TGI [39]: > 100 µM
TGI [40]: > 100 µM
TGI [41]: > 100 µM
TGI [42]: > 100 µM
TGI [56]: > 100 µM
TGI [43]: > 100 µM
TGI [44]: > 100 µM
TGI [45]: > 100 µM
TGI [46]: > 100 µM
TGI [48]: > 100 µM
TGI [49]: > 100 µM
TGI [57]: > 100 µM
TGI [50]: > 100 µM

CC(O)CNC(=O)C(C)Oc1ccc(OCC2CCCCC2)cc1 (stereo not drawn)
TGI [1]: > 100 µM
TGI [3]: > 100 µM
TGI [4]: > 100 µM
TGI [5]: > 100 µM
TGI [7]: > 100 µM
TGI [8]: > 100 µM
TGI [10]: > 100 µM
TGI [11]: > 100 µM
TGI [12]: > 100 µM
TGI [13]: > 100 µM
TGI [14]: > 100 µM
TGI [16]: > 100 µM
TGI [17]: > 100 µM
TGI [19]: > 100 µM
TGI [20]: > 100 µM
TGI [21]: > 100 µM
TGI [22]: > 100 µM
TGI [23]: > 100 µM
TGI [24]: > 100 µM
TGI [26]: > 100 µM
TGI [27]: > 100 µM
TGI [58]: > 100 µM
TGI [28]: > 100 µM
TGI [29]: > 100 µM
TGI [54]: > 100 µM
TGI [32]: > 100 µM
TGI [33]: > 100 µM
TGI [34]: > 100 µM
TGI [35]: > 100 µM
TGI [36]: > 100 µM
TGI [37]: > 100 µM
TGI [38]: > 100 µM
TGI [39]: > 100 µM
TGI [41]: > 100 µM
TGI [42]: > 100 µM
TGI [56]: > 100 µM
TGI [43]: > 100 µM
TGI [44]: > 100 µM
TGI [45]: > 100 µM
TGI [46]: > 100 µM
TGI [47]: > 100 µM
TGI [48]: > 100 µM
TGI [49]: > 100 µM
TGI [57]: > 100 µM
TGI [50]: > 100 µM

Cc1ccc(/C=N\NC2c3cc(Cl)ccc3Nc3nc(=O)[nH]c(C)c32)cc1 (stereo not drawn)
TGI [2]: > 100 µM
TGI [3]: > 100 µM
TGI [4]: > 100 µM
TGI [5]: > 100 µM
TGI [51]: > 100 µM
TGI [6]: > 100 µM
TGI [7]: > 100 µM
TGI [8]: > 100 µM
TGI [9]: > 100 µM
TGI [10]: > 100 µM
TGI [11]: > 100 µM
TGI [12]: > 100 µM
TGI [13]: > 100 µM
TGI [14]: > 100 µM
TGI [15]: > 100 µM
TGI [16]: > 100 µM
TGI [17]: > 100 µM
TGI [19]: > 100 µM
TGI [20]: > 100 µM
TGI [21]: > 100 µM
TGI [22]: > 100 µM
TGI [53]: > 100 µM
TGI [24]: > 100 µM
TGI [25]: > 100 µM
TGI [26]: > 100 µM
TGI [27]: > 100 µM
TGI [58]: > 100 µM
TGI [28]: > 100 µM
TGI [29]: > 100 µM
TGI [54]: > 100 µM
TGI [30]: > 100 µM
TGI [31]: > 100 µM
TGI [32]: > 100 µM
TGI [55]: > 100 µM
TGI [33]: > 100 µM
TGI [34]: > 100 µM
TGI [35]: > 100 µM
TGI [36]: > 100 µM
TGI [37]: > 100 µM
TGI [38]: > 100 µM
TGI [40]: > 100 µM
TGI [41]: > 100 µM
TGI [42]: > 100 µM
TGI [56]: > 100 µM
TGI [43]: > 100 µM
TGI [44]: > 100 µM
TGI [46]: > 100 µM
TGI [47]: > 100 µM
TGI [48]: > 100 µM
TGI [49]: > 100 µM
TGI [50]: > 100 µM
